Bounds are passed on as bounds.

What all share (assay): filter binding kinase assay
Holding throughout (type): biochemical

One experiment addresses T1, AKT2 (Homo sapiens, UniProt P31751).
T1 construct: purchased
The conditions noted are these: derived from % inhibition at 1 μM. The gist of the method: (§1)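 Compound was pre-incubated with enzyme and substrate for 5 minutes at room temperature, then the reaction was started with ATP (added solution at 5, 20 or 50 […] depending on kinase). Orthophosphoric acid stopped it, and phosphorylated substrate captured on P81 filters was quantified by scintillation counting.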

For a further experiment, the target named is T2, AURKA (Aurora A) (Homo sapiens, UniProt O14965).
T2 construct: purchased
T2 sequence (O14965 1-403): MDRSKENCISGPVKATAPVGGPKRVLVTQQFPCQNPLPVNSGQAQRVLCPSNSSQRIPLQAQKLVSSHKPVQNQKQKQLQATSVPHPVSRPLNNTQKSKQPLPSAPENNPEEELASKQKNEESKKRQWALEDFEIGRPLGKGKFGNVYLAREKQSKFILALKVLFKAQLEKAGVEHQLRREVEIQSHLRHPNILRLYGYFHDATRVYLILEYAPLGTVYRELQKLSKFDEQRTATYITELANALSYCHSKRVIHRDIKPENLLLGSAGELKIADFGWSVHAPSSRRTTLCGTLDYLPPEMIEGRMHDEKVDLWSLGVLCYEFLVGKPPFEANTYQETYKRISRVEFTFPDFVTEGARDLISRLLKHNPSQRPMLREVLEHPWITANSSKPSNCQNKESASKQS
The settings on record: for IC50: derived from % inhibition at 1 μM; for remaining activity at 1 µM: read-out: residual kinase activity Aurora A. The method, boiled down: as §1

The target in a further experiment is T3, CSNK1D (Homo sapiens, UniProt P48730).
T3 construct: purchased
The conditions noted are these: derived from % inhibition at 1 μM. The method, boiled down:
as §1

In another experiment the target is T4, FGFR1 (Homo sapiens, UniProt P11362).
T4 construct: purchased
The conditions noted are these: derived from % inhibition at 1 μM. The gist of the method:
as §1

In another experiment the target is T5, GSK3B (GSK3b) (Homo sapiens, UniProt P49841).
T5 construct: purchased
The conditions noted are these: for IC50: derived from % inhibition at 1 μM. The gist of the method:
as §1

The target in a further experiment is T6, MARK3 (Homo sapiens, UniProt P27448).
T6 construct: purchased
The settings on record: for IC50: derived from % inhibition at 1 μM. The method, boiled down:
as §1

The next experiment deals with T7, MELK (Homo sapiens, UniProt Q14680).
T7 construct: purchased
The conditions noted are these: derived from % inhibition at 1 μM. The gist of the method: as §1

Another experiment has as its target T8, PAK2 (Homo sapiens, UniProt Q13177).
T8 construct: purchased
The settings on record: derived from % inhibition at 1 μM. The gist of the method:
as §1

Another experiment addresses T9, PIM3 (Homo sapiens, UniProt Q86V86).
T9 construct: purchased
The conditions noted are these: derived from % inhibition at 1 μM. The method, boiled down:
as §1

In the next experiment the target is T10, PLK1 (Homo sapiens, UniProt P53350).
T10 construct: purchased
The conditions noted are these: derived from % inhibition at 1 μM. The gist of the method: as §1

The next experiment addresses T11, SGK (Homo sapiens, UniProt O00141).
T11 construct: purchased
T11 sequence (O00141 1-431): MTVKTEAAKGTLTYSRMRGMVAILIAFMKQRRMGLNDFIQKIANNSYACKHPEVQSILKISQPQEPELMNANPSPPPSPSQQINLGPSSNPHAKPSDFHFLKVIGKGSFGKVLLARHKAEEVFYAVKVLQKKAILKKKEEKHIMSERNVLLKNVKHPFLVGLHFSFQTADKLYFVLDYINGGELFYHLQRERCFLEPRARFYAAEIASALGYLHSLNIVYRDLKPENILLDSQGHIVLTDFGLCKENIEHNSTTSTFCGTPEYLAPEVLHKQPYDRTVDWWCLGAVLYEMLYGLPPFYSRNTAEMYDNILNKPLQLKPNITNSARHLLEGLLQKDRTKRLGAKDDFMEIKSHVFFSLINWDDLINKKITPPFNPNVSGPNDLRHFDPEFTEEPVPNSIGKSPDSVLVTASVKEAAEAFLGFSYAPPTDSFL
The conditions noted are these: derived from % inhibition at 1 μM. The gist of the method: as §1

In another experiment the target is T12, TGFBR1 (Homo sapiens, UniProt P36897).
T12 construct: purchased
T12 sequence (P36897 34-503): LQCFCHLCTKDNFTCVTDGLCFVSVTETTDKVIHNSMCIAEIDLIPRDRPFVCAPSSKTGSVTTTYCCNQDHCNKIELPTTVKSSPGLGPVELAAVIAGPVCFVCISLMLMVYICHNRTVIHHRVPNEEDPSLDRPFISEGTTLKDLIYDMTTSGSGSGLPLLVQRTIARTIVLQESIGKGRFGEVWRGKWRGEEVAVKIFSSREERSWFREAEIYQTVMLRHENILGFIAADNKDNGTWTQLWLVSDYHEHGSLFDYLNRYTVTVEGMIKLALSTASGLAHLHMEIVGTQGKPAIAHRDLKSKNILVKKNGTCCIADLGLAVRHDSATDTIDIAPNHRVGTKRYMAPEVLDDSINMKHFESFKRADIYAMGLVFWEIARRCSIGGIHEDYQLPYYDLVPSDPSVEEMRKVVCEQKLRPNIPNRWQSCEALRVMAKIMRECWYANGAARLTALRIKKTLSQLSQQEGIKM
The settings on record: derived from % inhibition at 1 μM. The method, boiled down: as §1

T3 sequence (P48730 whole entry, species assumed): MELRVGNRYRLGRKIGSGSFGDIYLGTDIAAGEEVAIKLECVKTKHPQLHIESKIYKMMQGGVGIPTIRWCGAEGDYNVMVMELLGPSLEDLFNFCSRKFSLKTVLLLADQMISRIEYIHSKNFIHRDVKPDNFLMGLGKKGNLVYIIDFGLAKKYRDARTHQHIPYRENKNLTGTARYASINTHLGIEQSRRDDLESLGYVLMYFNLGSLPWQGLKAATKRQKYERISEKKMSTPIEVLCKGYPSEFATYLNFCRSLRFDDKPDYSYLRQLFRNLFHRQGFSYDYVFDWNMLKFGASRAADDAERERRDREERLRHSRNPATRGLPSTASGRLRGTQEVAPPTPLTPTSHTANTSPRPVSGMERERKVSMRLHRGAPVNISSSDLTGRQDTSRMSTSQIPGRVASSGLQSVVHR
T5 sequence (P49841 whole entry, species assumed): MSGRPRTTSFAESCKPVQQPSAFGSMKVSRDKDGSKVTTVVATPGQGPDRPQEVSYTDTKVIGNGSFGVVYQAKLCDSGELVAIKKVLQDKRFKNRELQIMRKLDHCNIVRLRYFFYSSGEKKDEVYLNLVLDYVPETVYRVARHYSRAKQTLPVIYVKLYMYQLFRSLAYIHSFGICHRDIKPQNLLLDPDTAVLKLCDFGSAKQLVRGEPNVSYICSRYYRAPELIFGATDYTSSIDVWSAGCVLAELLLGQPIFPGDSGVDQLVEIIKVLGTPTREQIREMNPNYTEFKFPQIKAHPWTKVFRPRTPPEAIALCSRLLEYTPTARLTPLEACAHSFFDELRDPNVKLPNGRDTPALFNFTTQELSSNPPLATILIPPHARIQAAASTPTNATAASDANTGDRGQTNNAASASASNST
T4 sequence (P11362 22-822, species assumed): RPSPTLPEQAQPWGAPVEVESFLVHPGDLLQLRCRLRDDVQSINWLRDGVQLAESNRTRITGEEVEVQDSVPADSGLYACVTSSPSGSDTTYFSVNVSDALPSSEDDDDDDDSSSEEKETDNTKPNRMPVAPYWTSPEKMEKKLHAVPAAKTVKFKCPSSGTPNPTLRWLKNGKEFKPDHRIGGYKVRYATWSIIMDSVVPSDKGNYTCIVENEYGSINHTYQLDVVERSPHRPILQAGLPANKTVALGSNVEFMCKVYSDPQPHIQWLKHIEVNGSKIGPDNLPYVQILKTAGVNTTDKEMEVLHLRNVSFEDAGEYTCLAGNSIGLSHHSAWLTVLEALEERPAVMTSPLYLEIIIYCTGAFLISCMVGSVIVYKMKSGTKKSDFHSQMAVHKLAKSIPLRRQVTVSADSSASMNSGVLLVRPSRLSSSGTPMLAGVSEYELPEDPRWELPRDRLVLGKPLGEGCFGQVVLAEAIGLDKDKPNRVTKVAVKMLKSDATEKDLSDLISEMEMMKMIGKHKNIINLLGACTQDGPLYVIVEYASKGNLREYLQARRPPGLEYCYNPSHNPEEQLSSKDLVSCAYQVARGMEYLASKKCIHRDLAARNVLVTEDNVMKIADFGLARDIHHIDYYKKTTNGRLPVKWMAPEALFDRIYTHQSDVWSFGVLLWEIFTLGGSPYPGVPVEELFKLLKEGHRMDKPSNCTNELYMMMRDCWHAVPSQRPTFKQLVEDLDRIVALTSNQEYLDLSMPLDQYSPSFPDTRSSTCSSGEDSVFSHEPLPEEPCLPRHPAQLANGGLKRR
T6 sequence (P27448 whole entry, species assumed): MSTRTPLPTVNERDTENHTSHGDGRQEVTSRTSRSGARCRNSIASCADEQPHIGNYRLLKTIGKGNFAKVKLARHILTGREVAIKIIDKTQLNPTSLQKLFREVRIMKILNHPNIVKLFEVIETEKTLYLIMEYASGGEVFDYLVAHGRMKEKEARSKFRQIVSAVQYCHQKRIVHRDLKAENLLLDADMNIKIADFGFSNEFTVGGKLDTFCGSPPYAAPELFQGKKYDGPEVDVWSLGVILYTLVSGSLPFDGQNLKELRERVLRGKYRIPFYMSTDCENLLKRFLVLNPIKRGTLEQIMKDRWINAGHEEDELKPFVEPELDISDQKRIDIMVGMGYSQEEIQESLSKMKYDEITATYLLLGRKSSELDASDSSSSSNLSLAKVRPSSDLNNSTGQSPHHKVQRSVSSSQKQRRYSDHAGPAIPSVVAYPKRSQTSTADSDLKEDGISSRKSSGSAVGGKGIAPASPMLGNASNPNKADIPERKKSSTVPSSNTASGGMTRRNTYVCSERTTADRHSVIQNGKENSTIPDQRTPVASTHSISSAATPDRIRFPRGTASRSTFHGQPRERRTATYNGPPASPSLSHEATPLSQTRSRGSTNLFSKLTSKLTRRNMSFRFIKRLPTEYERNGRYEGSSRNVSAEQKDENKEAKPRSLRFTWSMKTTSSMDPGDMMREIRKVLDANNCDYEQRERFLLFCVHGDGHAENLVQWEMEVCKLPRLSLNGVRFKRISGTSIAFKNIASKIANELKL
T10 sequence (P53350 whole entry, species assumed): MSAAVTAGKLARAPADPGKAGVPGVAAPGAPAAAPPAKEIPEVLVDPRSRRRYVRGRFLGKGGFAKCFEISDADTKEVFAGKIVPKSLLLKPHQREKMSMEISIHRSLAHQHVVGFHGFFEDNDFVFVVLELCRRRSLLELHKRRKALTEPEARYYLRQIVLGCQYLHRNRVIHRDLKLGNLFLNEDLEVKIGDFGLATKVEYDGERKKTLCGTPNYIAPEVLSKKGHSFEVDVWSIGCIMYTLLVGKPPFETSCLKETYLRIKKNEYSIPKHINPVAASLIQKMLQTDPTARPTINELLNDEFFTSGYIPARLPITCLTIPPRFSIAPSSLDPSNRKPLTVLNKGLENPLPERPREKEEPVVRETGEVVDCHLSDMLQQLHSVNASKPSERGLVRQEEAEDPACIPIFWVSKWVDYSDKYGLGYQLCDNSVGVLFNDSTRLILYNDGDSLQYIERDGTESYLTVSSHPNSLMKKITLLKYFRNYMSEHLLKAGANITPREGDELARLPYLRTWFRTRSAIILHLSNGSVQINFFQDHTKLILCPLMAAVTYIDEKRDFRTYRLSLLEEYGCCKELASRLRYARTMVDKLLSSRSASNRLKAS
T8 sequence (Q13177 whole entry, species assumed): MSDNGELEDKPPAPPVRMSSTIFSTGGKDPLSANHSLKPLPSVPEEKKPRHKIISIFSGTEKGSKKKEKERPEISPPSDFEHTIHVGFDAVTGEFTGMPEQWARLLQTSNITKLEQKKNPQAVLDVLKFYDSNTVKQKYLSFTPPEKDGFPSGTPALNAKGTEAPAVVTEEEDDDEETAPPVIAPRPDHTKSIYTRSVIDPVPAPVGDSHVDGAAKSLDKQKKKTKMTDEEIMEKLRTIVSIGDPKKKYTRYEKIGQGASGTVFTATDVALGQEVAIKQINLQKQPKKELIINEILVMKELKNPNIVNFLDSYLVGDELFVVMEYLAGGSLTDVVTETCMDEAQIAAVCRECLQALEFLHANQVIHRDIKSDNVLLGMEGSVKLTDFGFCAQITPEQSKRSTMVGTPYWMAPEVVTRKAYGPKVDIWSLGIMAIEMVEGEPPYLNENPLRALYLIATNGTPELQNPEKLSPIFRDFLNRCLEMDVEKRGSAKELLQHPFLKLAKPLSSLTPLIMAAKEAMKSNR
T7 sequence (Q14680 whole entry, species assumed): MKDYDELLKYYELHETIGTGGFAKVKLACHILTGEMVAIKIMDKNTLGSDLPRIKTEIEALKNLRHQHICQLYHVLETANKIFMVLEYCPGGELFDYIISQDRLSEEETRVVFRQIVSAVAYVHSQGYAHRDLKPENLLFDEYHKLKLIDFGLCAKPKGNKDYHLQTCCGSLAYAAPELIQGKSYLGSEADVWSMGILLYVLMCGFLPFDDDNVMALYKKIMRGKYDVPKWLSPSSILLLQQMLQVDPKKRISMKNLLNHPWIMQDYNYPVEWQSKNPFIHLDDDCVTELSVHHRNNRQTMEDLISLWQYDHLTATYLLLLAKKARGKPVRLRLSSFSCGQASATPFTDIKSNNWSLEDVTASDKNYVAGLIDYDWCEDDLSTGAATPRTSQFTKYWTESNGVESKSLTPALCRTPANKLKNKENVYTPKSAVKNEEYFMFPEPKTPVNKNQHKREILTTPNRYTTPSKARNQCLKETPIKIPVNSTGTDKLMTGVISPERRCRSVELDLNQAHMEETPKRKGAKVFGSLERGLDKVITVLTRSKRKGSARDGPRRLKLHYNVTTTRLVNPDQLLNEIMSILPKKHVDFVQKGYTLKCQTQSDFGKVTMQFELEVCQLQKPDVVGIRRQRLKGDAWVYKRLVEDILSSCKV
T1 sequence (P31751 whole entry, species assumed): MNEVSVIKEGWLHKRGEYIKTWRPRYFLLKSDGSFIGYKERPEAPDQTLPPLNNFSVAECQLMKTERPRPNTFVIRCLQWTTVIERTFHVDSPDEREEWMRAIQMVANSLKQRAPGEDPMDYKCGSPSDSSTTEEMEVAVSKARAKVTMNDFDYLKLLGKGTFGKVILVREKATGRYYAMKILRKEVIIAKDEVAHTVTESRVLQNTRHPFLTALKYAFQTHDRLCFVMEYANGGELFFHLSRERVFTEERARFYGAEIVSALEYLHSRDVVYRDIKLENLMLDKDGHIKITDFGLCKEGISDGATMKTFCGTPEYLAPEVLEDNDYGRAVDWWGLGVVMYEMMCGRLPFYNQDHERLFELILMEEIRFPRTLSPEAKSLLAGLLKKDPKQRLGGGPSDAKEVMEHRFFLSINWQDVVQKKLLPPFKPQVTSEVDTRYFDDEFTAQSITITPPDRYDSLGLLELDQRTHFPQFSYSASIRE

One may read the IC50 as the concentration needed to halve the response being measured. Higher therefore signals weaker potency. Turning to `Nc1ncsc1C#Cc1cccc(O)c1` [Compound A27, 3-(4-aminothiazol-5-ylethynyl)phenol], the IC50 at AKT2 is 1000 to 10000 nM; on AURKA (Aurora A), 1000 to 10000 nM; at CSNK1D, 1000 to 10000 nM; at FGFR1 it was > 1000 nM; on GSK3B (GSK3b), 1000 to 10000 nM; on MARK3, 10000 to 100000 nM. The IC50 at MELK was 1000 to 10000 nM; at PAK2, > 1000 nM; on PIM3, 1000 to 10000 nM; on PLK1, 10000 to 100000 nM; at SGK, > 1000 nM; on TGFBR1 it was 1000 to 10000 nM.

On to `CC(C)(C)OC(=O)Nc1ncsc1C#CCN1C(=O)c2ccccc2C1=O` [Compound A26, tert-butyl{5-[3-(1,3-dioxo-1,3-dihydroisoindol-2-yl)prop-1-ynyl]-thiazol-4-yl}carbamate], for which the half-inhibitory concentration (IC50) on AKT2 was > 1000 nM; at AURKA (Aurora A), 1000 to 10000 nM; on CSNK1D, > 1000 nM; on FGFR1 it was 1000 to 10000 nM; on GSK3B (GSK3b) it was 1000 to 10000 nM; at MARK3, 1000 to 10000 nM. The half-inhibitory concentration (IC50) is > 1000 nM on MELK; > 1000 nM at PAK2; > 1000 nM on PIM3; > 1000 nM at PLK1; 1000 to 10000 nM at SGK; 10000 to 100000 nM on TGFBR1.

Turning to `CC(C)(C)OC(=O)Nc1nc(-c2ccncc2)sc1C#CCN1CCOCC1` [Compound A25, tert-butyl[5-(3-morpholin-4-ylprop-1-ynyl)-2-pyridin-4-ylthiazol-4-yl]-carbamate], the IC50 at AKT2 was 1000 to 10000 nM; on AURKA (Aurora A), > 1000 nM; at CSNK1D it was > 1000 nM; on FGFR1, > 1000 nM; on GSK3B (GSK3b), > 1000 nM; on MARK3, > 1000 nM. Moreover, the IC50 at MELK is > 1000 nM; on PAK2, > 1000 nM; on PIM3, > 1000 nM; on PLK1 it was > 1000 nM; at SGK, 10000 to 100000 nM; at TGFBR1 it was 1000 to 10000 nM.

`c1ccc(Cc2c[nH]c3ncsc23)cc1` [Compound A7, 6-benzyl-4H-pyrrolo[2,3-d]thiazole]: the concentration for half-maximal inhibition (IC50) on AKT2 is > 1000 nM; at AURKA (Aurora A), 10 to 1000 nM; at CSNK1D, 1000 to 10000 nM; at FGFR1, 1000 to 10000 nM; on GSK3B (GSK3b), 1000 to 10000 nM; at MARK3, 1000 to 10000 nM. In addition, the 50% inhibitory concentration (IC50) was 1000 to 10000 nM at MELK; 1000 to 10000 nM at PAK2; 1000 to 10000 nM on PIM3; > 1000 nM on PLK1; > 1000 nM at SGK; 10000 to 100000 nM at TGFBR1. Also, the remaining activity at 1 µM on AURKA (Aurora A) amounted to 33%.

`Nc1ncsc1C#Cc1cnc2[nH]ccc2c1` [Compound A22, 5-(1H-pyrrolo[2,3-b]pyridin-5-ylethynyl)thiazol-4-ylamine]: the IC50 was > 1000 nM on AKT2; 10 to 1000 nM at AURKA (Aurora A); 10000 to 100000 nM on CSNK1D; 1000 to 10000 nM on FGFR1; 10 to 1000 nM on GSK3B (GSK3b); 10 to 1000 nM on MARK3. The 50% inhibitory concentration (IC50) at MELK was > 1000 nM; at PAK2, > 1000 nM; on PIM3 it was 10000 to 100000 nM; at PLK1, 1000 to 10000 nM; at SGK, 1000 to 10000 nM; on TGFBR1, 10000 to 100000 nM. For the same compound, the remaining activity at 1 µM at AURKA (Aurora A) was 39%; at GSK3B (GSK3b) (read-out: residual kinase activity GSK3b), 9%; at MARK3 (read-out: residual kinase activity MARK3), 15%.

(Values after patent publication US8703961B2, “Thiazole derivatives for the treatment of diseases such as cancer” (Merck Patent GmbH, priority 2009, dated 2014).)
